Results published in article PMC7392887, “Structural signatures in EPR3 define a unique class of plant carbohydrate receptors” (Nature Communications, 2020).

T1: EPR3 (Lotus japonicus, UniProt D3KU53)
T1 construct: gene LYS3; ectodomain (M1, M2, LysM3, stem), residues 33-232; N-terminal gp67 secretion signal, C-terminal 6xHis tag; secreted from Sf9 insect cells (baculovirus); glycosylated or PNGase F-treated; monomer
T1 sequence (D3KU53 33-232): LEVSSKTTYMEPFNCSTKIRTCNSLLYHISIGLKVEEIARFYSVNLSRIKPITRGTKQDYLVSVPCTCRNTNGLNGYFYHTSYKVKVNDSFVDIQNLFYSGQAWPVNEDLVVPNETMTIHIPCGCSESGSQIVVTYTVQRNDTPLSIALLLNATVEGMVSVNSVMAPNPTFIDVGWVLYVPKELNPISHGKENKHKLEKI

T2: Lotus japonicus exopolysaccharide receptor 3 (EPR3) ectodomain (Lotus japonicus ecotype Gifu, N-linked oligosaccharides (glycosylated))
T2 construct: EPR3 (exopolysaccharide receptor 3), Lotus japonicus ecotype Gifu, ectodomain, residues 33-232; Codon-optimised for insect cells, vector pOET2; also called Lotus EPR3; glycosylated EPR3; source: Sf9 (baculovirus), secreted into the medium, purified (HisTrap excel, HisTrap HP, Superdex 75)
T2 chain: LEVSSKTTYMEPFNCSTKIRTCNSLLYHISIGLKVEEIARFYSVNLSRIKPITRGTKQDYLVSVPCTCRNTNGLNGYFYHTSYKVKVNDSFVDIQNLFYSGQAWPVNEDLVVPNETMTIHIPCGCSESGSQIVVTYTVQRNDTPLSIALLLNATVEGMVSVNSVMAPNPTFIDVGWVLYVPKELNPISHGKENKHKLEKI


Experiments:
EPR3 = biological target: T1, EPR3; assay: microscale thermophoresis; format: binding; details: labelled EPR3 (Blue NHS, 100 nM); 50 mM K2PO4 pH 7.8, 500 mM NaCl, 0.05% Tween-20; 25 °C; n = 3
[1] = biological target: T2, Lotus japonicus exopolysaccharide …; assay: SEC; analytic Superdex 75 Increase 3.2/300 column; mobility shift of the complex; details: both partners purified

Molecule | Kd (EPR3) | binding result [1]
O=C(O)[C@H]1O[C@@H](O[C@H]2[C@H](O)[C@@H](O)[C@@H](O[C@H]3[C@H](O)[C@@H](O)[C@H](OC[C@H]4O[C@@H](OC[C@H]5O[C@@H](O[C@H]6[C@H](O)[C@@H](O)[C@H](O[C@H]7[C@H](O)[C@@H](O)[C@H](O[C@H]8[C@@H](O)[C@@H](CO)OC(O)[C@@H]8O)O[C@@H]7CO)O[C@@H]6CO)[C@H](O)[C@@H](O)[C@@H]5O)[C@H](O)[C@@H](O)[C@@H]4O)O[C@@H]3CO)O[C@@H]2C(=O)O)[C@H](O)[C@@H]1O (some centres unmarked) [deOAc-EPS] | 31.3 ± 11.7 µM | –
Nb186 (VHH, llama (Lama glama) nanobody selected by phage display against EPR3; Cloned into pET22b(+) for bacterial expression; also called nanobody Nb186; source: E. coli LOBSTR, purified (Ni Sepharose 6 FF, Superdex 75)) VHH: QVQLVESGGGLVQPGGSLRLSCAASGSIFSIDYMGWYRQAPGKERELVAIKTSGGTTHYADSVKGRFTISRDNAKNTVYLQMNSLKPDDTAVYYCNARVYFGDRDYWGQGTQVTVSS | – | binds
